The values that follow come from patent US20230277490A1, “GLUTAMINE AS AN ANTICANCER THERAPY IN SOLID TUMORS” (CEDARS-SINAI MEDICAL CENTER, priority 2020, published 2023).

Data set [1] concerns pancreatic cancer cells. In words: Basal metabolic rate and mitochondrial proton leakage of pancreatic cancer cells. The class given is cell-based, human.
Data set [2] has as its system Pancreatic cancer cells (MIAPaCa human cell line). In words: Relative cell number / gemcitabine dose response with glutamine. It is filed as cell-based. Conditions: for IC50: Homo sapiens, MIAPaCa cells.
Data set [3] deals with Mia PaCa-2 cells. In words: Intracellular sodium by sodium green fluorescence intensity. The class given is cell-based. The settings on record: MIA PaCa-2 cells in vitro; L-Gln 40 mM, D-Gln high dose.
The subject of data set [4] is PDAC cells. In words: PDAC cell growth / cell death in vitro. It is filed as cell-based. The settings on record: D-Gln high dose.
Data set [5] concerns Mia PaCa-2 cells. In words: Antitumor efficacy of L-Gln supplementation and CB-839 in vitro (FIG. 7). The settings on record: for antitumor efficacy: single agent, Mia PaCa-2 cells in vitro. It is filed as cell-based.
Data set [6] concerns PDAC cells. It is filed as cell-based. From the text: As L-Gln supplementation enhances the efficacy of chemotherapy, we tested whether L-Gln can lower the effective dose of gemcitabine.
The subject of data set [7] is PDAC cells. In words: Glutamine supplementation with increasing concentrations of gemcitabine in PDAC cells. The class given is cell-based. From the text: The ability of L-Gln supplementation to […] intracellular nucleotide stores makes it an attractive agent to pair with gemcitabine, a standard chemotherapy used in the treatment of PDAC patients whose activity is also based on its ability to inhibit DNA synthesis.
We show herein that glutamine deprivation through glutaminase inhibition increases cancer cell survival and potentiates resistance to gemcitabine in PDAC cells.

The test system of data set [8] is pancreatic cancer cells. In words: Metabolomic mass spectrometric analysis of metabolite levels. It is filed as cell-based, human. As to the method:
We tested how elevated glutamine affects gemcitabine efficacy. […] We next tested the metabolic impact of super-physiologic glutamine concentration (40 mM) on the gemcitabine response (0.5 μM) of pancreatic cancer cells through standard metabolomic mass spectrometric analysis. The heat map in FIG. 3 illustrates the differential metabolite accumulation with glutamine and gemcitabine treatment, as single agent and in combination. There were a number of metabolic changes that were only observed with the combination treatment. […] Importantly, high glutamine administration would reduce the concentration of gemcitabine required to cause significant cancer cell death.

Data set [9] has as its system PDAC mouse models. Conditions: in vivo; cited from earlier work.
The test system of data set [10] is melanoma tumor. Conditions: dietary supplementation; cited from earlier work.
For data set [11] the following is noted: at 23° C.; cited from earlier work.
For data set [12] the following is noted: enteral glutamine, 47 prospective trials, over 1600 adult patients; cited from earlier work.
Data set [13] relates to pancreatic cancer cells. In words: DNA damage accumulation. It is filed as cell-based, human. The settings on record: combination of glutamine and gemcitabine over either single agent.
The mark [14] stands for this setting: combination 40 mM glutamine and 0.5 μM gemcitabine.

Molecules are shown by their SMILES.

By IC50 is commonly meant the midpoint of a concentration-inhibition curve.

As for `Nc1ccn([C@@H]2O[C@H](CO)[C@@H](O)C2(F)F)c(=O)n1` [gemcitabine], the basal metabolic rate entry in [1] (gemcitabine alone) is on record as “elevated”. Also, the mitochondrial proton leakage result in [1] (gemcitabine alone) is “induced”. The IC50 is 666 nM in data set [2] (MIA PaCa-2, in the presence of 2 mM glutamine (physiologic concentration)) and 179 nM in data set [2] (MIA PaCa-2, with 40 mM glutamine (super-physiologic concentration)).
As to `C[C@@H]1O[C@@H](O[C@H]2C[C@@H](O)[C@]3(CO)[C@H]4[C@H](O)C[C@]5(C)[C@@H](C6=CC(=O)OC6)CC[C@]5(O)[C@@H]4CC[C@]3(O)C2)[C@H](O)[C@H](O)[C@H]1O` [Ouabain], the intracellular sodium result in [3] was “leads to build up of intracellular sodium”. Besides, the “PDAC cell growth / cell death” value in data set [4] is on record as “greater PDAC cell death”.
Regarding `NC(=O)CC[C@H](N)C(=O)O` [L-Gln, L-glutamine], the “antitumor efficacy over time” value in data set [5] (40 mM L-Gln compared to control 2 mM L-Gln) is recorded as “consistently better with antitumor efficacy”. In addition, in data set [5] (L-Gln together with CB-839), the “antitumor activity under glutaminase inhibition” value is reported as “occurred independently of glutaminase inhibition with CB-839”. Also, the antitumor efficacy entry in [5] is recorded as “greater antitumor activity”. In addition, the intracellular sodium entry in data set [3] is “increases intracellular sodium levels”. Besides, the “colony formation with 5-FU” value in data set [6] was “as effective or even more effective than 5-FU at 0.1 uM”. In addition, the “colony formation with gemcitabine” value in [6] (20 mM L-Gln plus gemcitabine) is on record as “can enhance the efficacy gemcitabine”. Besides, the “colony formation with paclitaxel” value in [6] (high-dose L-Gln plus paclitaxel) is “enhances the efficacy of paclitaxel”. For the same molecule, the “antitumor effects of gemcitabine” value in data set [7] (L-Gln 40 mM compared to 2 mM, several PDAC cell lines) is recorded as “consistently enhanced the antitumor effects of gemcitabine”. The “TCA cycle metabolite levels” value in data set [8] (40 mM L-Gln) was “did not affect the majority of TCA cycle metabolites”. In addition, in data set [8] (40 mM compared to 2 mM L-Gln, PDAC cells in vitro), the “intracellular essential and conditionally amino acids” value was “significantly depleted”. Further, in [8] (40 mM compared to control 2 mM L-Gln), the intracellular nucleotide stores entry is on record as “significantly depleted”.
As for `O=C(Cc1cccc(OC(F)(F)F)c1)Nc1ccc(CCCCc2nnc(NC(=O)Cc3ccccn3)s2)nn1` [CB-839], the antitumor efficacy result in [5] was “some antitumor efficacy”. In addition, the “efficacy in PDAC mouse models” value in [9] is “failed”.
Turning to `NC(=O)CC[C@H](N)C(=O)O` [glutamine], in data set [10], the melanoma tumor growth entry is on record as “can inhibit melanoma tumor growth”. Besides, the “mitochondrial proton leakage induced by gemcitabine” value in [1] (additional glutamine treatment) is reported as “reduced”. Further, in data set [1] (combination of 40 mM glutamine and 0.5 μM gemcitabine), the basal metabolic rate entry is “further elevated still”. Also, the solubility in data set [11] was 3.6%. The tolerability result in [12] was “well-tolerated”. Also, the DNA damage result in data set [13] is given as “greater DNA damage accumulation”. Also, the “PDAC cell death with increasing concentrations of gemcitabine” value in data set [7] (glutamine supplementation) is recorded as “enhancement of PDAC cell death”. Further, in [7] (glutamine supplementation in the face of glutaminase inhibition), the “cancer cell viability with increasing concentrations of gemcitabine” value is recorded as “decreased cancer cell viability”. Moreover, the sensitivity to gemcitabine entry in [7] (glutamine supplementation, even in the face of glutaminase inhibition) is recorded as “enhances sensitivity to gemcitabine”. Further, the cell death result in data set [2] (combination of elevated concentrations of glutamine and gemcitabine compared to either alone) is “dramatic increase in cell death”. Also, in data set [8] (setting [14]), the free nucleotides result is on record as “accumulation of free nucleotides”; the “vitamin C and SAM levels” value was “accumulation of vitamin C and S-adenosine methionine (SAM)”.
